From paper PMC7714071, “Interaction of amyloid beta with humanin and acetylcholinesterase is modulated by ATP” (FEBS Open Bio, 2020)

Legend:
[1] = system: HN-Aβ complex (H1299 cell-conditioned media); experiment: ELISA, HN found in a complex with Aβ in H1299 cell-conditioned media; format: binding, human; conditions: ATP 100 μM, 1 mM; increased levels, compared with A549 media; Fig. 5C,D
Protocol: (§1) Human NSCLC cell lines, A549 (ATCC CCL‐185) and H1299 (ATCC CRL‐5803), were purchased from the American Type Culture Collection (ATCC, Manassas, VA, USA). Cells were seeded as we reported earlier in 5 mL HyClone Dulbecco's modified Eagle's medium/nutrient mixture F‐12 (DMEM/F12) (GE Healthcare Life Sciences, Pittsburgh, PA, USA), supplemented with 10% Fetalgro bovine growth serum (FBS; RMBIO, Missoula, MT, USA), 50 U·mL^−1 penicillin, and […] streptomycin (Invitrogen, Life Technologies, Carlsbad, CA, USA) in 25‐cm^2 tissue culture flasks, and allowed to grow overnight in an incubator at 37 °C, 95% humidity, and 5% CO2. The cells were counted after trypan blue staining, with a hemocytometer.
ELISAs were carried out as we previously reported. […] TBST was then used to wash the wells 4× before proceeding in one of two ways: (a) biotinylated samples were analyzed by adding 100 µL streptavidin–HRP conjugate in TBST (1 : 2500 dilution) to the samples followed by incubation for 3 h at RT on a shaker, or (b) samples without biotin were analyzed by adding 100 µL TBST containing the primary antibody as per the manufacturer's recommendation, incubating for 3 h at RT on a shaker, followed by washing the wells 4× with TBST. […] The reaction was stopped with 100 µL 2 M H2SO4 after incubating at RT for 0.5–15 min, resulting in a yellow color change, measured by absorbance at 450 nm. […]

[2] = system: Aβ from A549 cell-conditioned media; experiment: ELISA, HN (endogenous and exogenously added) and AChE bound to Aβ from A549 media on 82E1 antibody; format: binding, human; conditions: Fig. 6A
Protocol: as §1
ELISAs were carried out as we previously reported. Nunc MaxiSorp 96‐well flat bottom plate (Thermo Fisher) wells were coated with samples as indicated. The plates were incubated overnight at 4 °C on a shaker to allow binding of the samples to the plate wells. After the incubation, the wells were washed 4× with TBST, filled with 400 µL blocking buffer (110 mM KCl, 5 mM NaHCO3, 5 mM MgCl2, 1 mM EGTA, 0.1 mM CaCl2, 20 mM HEPES, 1% BSA, pH 7.4), and incubated with shaking overnight at 4 °C. The wells were then washed 4× with TBST, and 100 µL of sample at the desired concentration was added to each well and incubated with shaking overnight at 4 °C. TBST was then used to wash the wells 4× before proceeding in one of two ways: (a) biotinylated samples were analyzed by adding 100 µL streptavidin–HRP conjugate in TBST (1 : 2500 dilution) to the samples followed by incubation for 3 h at RT on a shaker, or (b) samples without biotin were analyzed by adding 100 µL TBST containing the primary antibody as per the manufacturer's recommendation, incubating for 3 h at RT on a shaker, followed by washing the wells 4× with TBST. The secondary antibody in 100 µL TBST was then added to the samples following the manufacturer's recommendation and incubated for 1 h at RT on a shaker. […] The reaction was stopped with 100 µL 2 M H2SO4 after incubating at RT for 0.5–15 min, resulting in a yellow color change, measured by absorbance at 450 nm. To monitor nonspecific binding, negative control wells on the plates included, for example, bound Aβ peptide then adding all components, streptavidin‐HRP and TMB, but without addition of biotin‐HN. Some wells were coated with 2.5, 10, 50, 100, 500, and 5000 nM biotin‐HN or Aβ to allow conversion of the OD measurements to concentrations of bound material. Before analysis, the OD from the data was corrected for nonspecific binding by subtracting the mean background absorbance for the negative controls. Typically, in control wells incubated on each plate, the background binding is about 10–15% of the maximum binding seen with addition of biotin peptides or antibodies. Statistical analysis was determined by the […] PRISM 8.4.3 software (San Diego, CA, USA). Data were expressed as the mean ± SD. […]
Anti‐Aβ‐specific antibodies (82E1) were added (1 : 1000 dilution) to ELISA plate wells (Fig. 6). The wells were blocked, and then, 300 µL of the conditioned media (0.5 µg·µL^−1) of A549 or H1299 cells, 72 h postserum starvation, was added in the absence or presence of increasing HN concentrations, and the HN and AChE bound were detected using the corresponding specific primary antibodies. Fold change relative to controls that included all components but without the primary antibodies was calculated and fit with a nonlinear regression curve using the […] […]

Compound	levels of HN bound to Aβ in the presence of ATP [1]	effect of ATP on binding of exogenously added HN to Aβ ([2]; 0.1 mM, 1 mM ATP (more pronounced at 1 mM), A549 media)	effect of ATP on binding of Aβ to AChE ([2]; A549 cell-conditioned media, 82E1)	effect of ATP on binding of endogenous HN to Aβ ([2]; increasing ATP (0.1 mM, 1 mM; more pronounced at 1 mM), A549 media, 82E1)	HN concentration at which signal begins to level off ([2]; exogenous HN, A549 media)	binding of exogenous HN to Aβ ([2]; increasing exogenous HN, A549 media, 82E1)
Nc1ncnc2c1ncn2[C@@H]1O[C@H](COP(=O)(O)OP(=O)(O)OP(=O)(O)O)[C@@H](O)[C@H]1O [ATP, Adenosine triphosphate]	also comparable	decreased binding of exogenously added HN	decreased upon addition of ATP	increased binding of endogenous HN		
Humanin [HN]					around 50 nM	increased binding to Aβ
